Columns and labels:
[1] = tested on: wheat; test: Test A preemergence; type: in vivo, Triticum aestivum
Procedure, shortened: (§1)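 Compounds in non-phytotoxic solvent with surfactant applied as soil spray preemergence, or postemergence to plants 2-10 cm at one- to two-leaf stage, in loam/sand. After approximately 10 days in greenhouse, injury rated visually versus untreated controls, 0 (no effect) to 100 (complete control).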

[2] = tested on: Heteranthera limosa; test: Test B flooded paddy test; type: in vivo; details: Flood, 250 g ai/ha; 0 to 100 scale where 0 is no effect and 100 is complete control
Procedure, shortened: (§2)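 Visual ratings on a 0 to 100 scale, where 100 means complete control, compared treated plants with controls after 13 to 15 days in a greenhouse. Treatment went into paddy water 3 cm deep over the soil, applied to plants at the 2-leaf stage.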

[3] = tested on: galium; test: Test C postemergence; type: in vivo, Galium aparine; details: for Plant response rating (0 to 100), Galium: 16 g ai/ha, 0 is no effect, 100 is complete control; for Galium plant response rating: 31 g ai/ha; for Galium plant response rating / Plant response rating, Galium: scale 0 to 100 (0 no effect, 100 complete control)
Procedure, shortened: (§3)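 Greenhouse herbicide screen. Pre: seeded loam/sand, sprayed at planting. Post: 1–4 leaf plants (2–18 cm) in peat-based mix. Formulation: solvent mixture + surfactant, non-phytotoxic. Readout: visual % control vs untreated, 13–15 d; dash = not tested.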

[4] = tested on: yellow nutsedge; test: Test C postemergence; type: in vivo, Cyperus esculentus; details: for Plant response rating (0 to 100), Nutsedge, Yellow: 16 g ai/ha, 0 is no effect, 100 is complete control; for Nutsedge, Yellow plant response rating: 31 g ai/ha; for Nutsedge, Yellow plant response rating / Plant response rating, Nutsedge, Yellow: scale 0 to 100 (0 no effect, 100 complete control)
Procedure, shortened: as §3

[5] = tested on: morningglory; test: Test C postemergence; type: in vivo, Ipomoea coccinea; details: for Plant response rating (0 to 100), Morningglory: 16 g ai/ha, 0 is no effect, 100 is complete control; for Morningglory plant response rating: 31 g ai/ha; for Morningglory plant response rating / Plant response rating, Morningglory: scale 0 to 100 (0 no effect, 100 complete control)
Procedure, shortened: as §3

[6] = tested on: corn; test: Test A preemergence; type: in vivo, Zea mays
Procedure, shortened: as §1

[7] = tested on: sedge, umbrella; test: Test B flooded paddy test; type: in vivo, Cyperus difformis; details: Flood, 250 g ai/ha; 0 to 100 scale where 0 is no effect and 100 is complete control
Procedure, shortened: as §2

[8] = tested on: rice; test: Test B flooded paddy test; type: in vivo, Oryza sativa; details: Flood, 250 g ai/ha; 0 to 100 scale where 0 is no effect and 100 is complete control
Procedure, shortened: as §2

[9] = tested on: wheat, winter; test: Test C postemergence; type: in vivo, Triticum aestivum; details: for Plant response rating (0 to 100), Wheat: 16 g ai/ha, 0 is no effect, 100 is complete control; for Wheat plant response rating: 31 g ai/ha; for Wheat plant response rating / Plant response rating, Wheat: scale 0 to 100 (0 no effect, 100 complete control)
Procedure, shortened: as §3

[10] = tested on: velvetleaf; test: Test C postemergence; type: in vivo, Abutilon theophrasti; details: for Plant response rating (0 to 100), Velvetleaf: 16 g ai/ha, 0 is no effect, 100 is complete control; for Velvetleaf plant response rating: 31 g ai/ha; for Velvetleaf plant response rating / Plant response rating, Velvetleaf: scale 0 to 100 (0 no effect, 100 complete control)
Procedure, shortened: as §3

[11] = tested on: lambsquarters; test: Test C postemergence; type: in vivo, Chenopodium album; details: for Plant response rating (0 to 100), Lambsquarters: 16 g ai/ha, 0 is no effect, 100 is complete control; for Lambsquarters plant response rating: 31 g ai/ha; for Lambsquarters plant response rating / Plant response rating, Lambsquarters: scale 0 to 100 (0 no effect, 100 complete control)
Procedure, shortened: as §3

[12] = tested on: barnyardgrass; test: Test A preemergence; type: in vivo, Echinochloa crus-galli
Procedure, shortened: as §1

[13] = tested on: giant foxtail; test: Test A preemergence; type: in vivo, Setaria faberii
Procedure, shortened: as §1

[14] = tested on: chickweed; test: Test C postemergence; type: in vivo, Stellaria media; details: for Plant response rating (0 to 100), Chickweed: 16 g ai/ha, 0 is no effect, 100 is complete control; for Chickweed plant response rating: 31 g ai/ha; for Chickweed plant response rating / Plant response rating, Chickweed: scale 0 to 100 (0 no effect, 100 complete control)
Procedure, shortened: as §3

[15] = tested on: ragweed; test: Test C postemergence; type: in vivo, Ambrosia elatior; details: for Plant response rating (0 to 100), Ragweed: 16 g ai/ha, 0 is no effect, 100 is complete control; for Ragweed plant response rating: 31 g ai/ha; for Ragweed plant response rating / Plant response rating, Ragweed: scale 0 to 100 (0 no effect, 100 complete control)
Procedure, shortened: as §3

[16] = tested on: barnyardgrass; test: Test B flooded paddy test; type: in vivo, Echinochloa crus-galli; details: Flood, 250 g ai/ha; 0 to 100 scale where 0 is no effect and 100 is complete control
Procedure, shortened: as §2

[17] = 500 g ai/ha, 0 to 100 scale where 0 is no effect and 100 is complete control
[18] = postemergence, visual rating, 13 to 15 days
[19] = 125 g ai/ha, postemergence, visual rating
[20] = Postemergence, 62 g ai/ha, 13 to 15 days
[21] = 1000 g ai/ha, 0 to 100 scale, 0 no effect, 100 complete control, approx. 10 days

Clc1cnc(Oc2cccc(Br)c2-n2cc(Cl)cn2)nc1 [Compound 221]
Wheat plant response rating (0 to 100 scale) ([1]; 125 g ai/ha): 0 | Wheat plant response rating [1, 17]: 10 | Plant response rating, Ducksalad [2]: 0 | Plant response rating (0 to 100), Galium ([3]; postemergence): 60 | Galium plant response rating [3, 18]: 55 | Plant response rating, Galium [3, 19]: 90 | Plant response rating, Galium [3, 20]: 55 | Plant response rating (0 to 100), Nutsedge, Yellow ([4]; postemergence): 0 | Nutsedge, Yellow plant response rating [4, 18]: 0 | Plant response rating, Nutsedge, Yellow [4, 19]: 10 | Plant response rating, Nutsedge, Yellow [4, 20]: 5 | Plant response rating (0 to 100), Morningglory ([5]; postemergence): 45 | Morningglory plant response rating [5, 18]: 40 | Plant response rating, Morningglory [5, 19]: 55 | Plant response rating, Morningglory [5, 20]: 50 | Corn plant response rating (0 to 100 scale) ([6]; 125 g ai/ha): 0 | Corn plant response rating [6, 17]: 0 | Plant response rating, Sedge, Umbrella [7]: 0 | Plant response rating, Rice [8]: 0 | Plant response rating (0 to 100), Wheat ([9]; postemergence): 0 | Wheat plant response rating [9, 18]: 0 | Plant response rating, Wheat [9, 19]: 0 | Plant response rating, Wheat [9, 20]: 0 | Plant response rating (0 to 100), Velvetleaf ([10]; postemergence): 35 | Velvetleaf plant response rating [10, 18]: 35 | Plant response rating, Velvetleaf [10, 19]: 75 | Plant response rating, Velvetleaf [10, 20]: 45 | Plant response rating (0 to 100), Lambsquarters ([11]; postemergence): 15 | Lambsquarters plant response rating [11, 18]: 60 | Plant response rating, Lambsquarters [11, 19]: 65 | Plant response rating, Lambsquarters [11, 20]: 50 | Barnyardgrass plant response rating (0 to 100 scale, 0 is no effect, 100 is complete control) ([12]; 125 g ai/ha): 10 | Barnyardgrass plant response rating [12, 17]: 90 | Foxtail, Giant plant response rating (0 to 100 scale) ([13]; 125 g ai/ha): 100 | Foxtail, Giant plant response rating [13, 17]: 100 | Plant response rating (0 to 100), Chickweed ([14]; postemergence): 20 | Chickweed plant response rating [14, 18]: 60 | Plant response rating, Chickweed [14, 19]: 50 | Plant response rating, Chickweed [14, 20]: 60 | Plant response rating (0 to 100), Ragweed ([15]; postemergence): 5 | Ragweed plant response rating [15, 18]: 5 | Plant response rating, Ragweed [15, 19]: 10 | Plant response rating, Ragweed [15, 20]: 20 | Plant response rating, Barnyardgrass [16]: 0

Clc1cnc(Oc2ccccc2-n2cc(Br)nn2)nc1 [Compound 223]
Wheat plant response rating [1, 21]: 80 | Plant response rating, Ducksalad [2]: 90 | Plant response rating (0 to 100), Galium ([3]; postemergence): 75 | Galium plant response rating [3, 18]: 80 | Plant response rating, Galium [3, 19]: 100 | Plant response rating, Galium [3, 20]: 80 | Plant response rating (0 to 100), Nutsedge, Yellow ([4]; postemergence): 5 | Nutsedge, Yellow plant response rating [4, 18]: 5 | Plant response rating, Nutsedge, Yellow [4, 19]: 5 | Plant response rating, Nutsedge, Yellow [4, 20]: 5 | Plant response rating (0 to 100), Morningglory ([5]; postemergence): 5 | Morningglory plant response rating [5, 18]: 45 | Plant response rating, Morningglory [5, 19]: 80 | Plant response rating, Morningglory [5, 20]: 70 | Corn plant response rating [6, 21]: 80 | Plant response rating, Sedge, Umbrella [7]: 85 | Plant response rating, Rice [8]: 50 | Plant response rating (0 to 100), Wheat ([9]; postemergence): 0 | Wheat plant response rating [9, 18]: 0 | Plant response rating, Wheat [9, 19]: 5 | Plant response rating, Wheat [9, 20]: 0 | Plant response rating (0 to 100), Velvetleaf ([10]; postemergence): 30 | Velvetleaf plant response rating [10, 18]: 55 | Plant response rating, Velvetleaf [10, 19]: 90 | Plant response rating, Velvetleaf [10, 20]: 80 | Plant response rating (0 to 100), Lambsquarters ([11]; postemergence): 60 | Lambsquarters plant response rating [11, 18]: 75 | Plant response rating, Lambsquarters [11, 19]: 95 | Plant response rating, Lambsquarters [11, 20]: 75 | Barnyardgrass plant response rating [12, 21]: 100 | Foxtail, Giant plant response rating [13, 21]: 100 | Plant response rating (0 to 100), Chickweed ([14]; postemergence): 35 | Chickweed plant response rating [14, 18]: 50 | Plant response rating, Chickweed [14, 19]: 60 | Plant response rating, Chickweed [14, 20]: 50 | Plant response rating (0 to 100), Ragweed ([15]; postemergence): 10 | Ragweed plant response rating [15, 18]: 20 | Plant response rating, Ragweed [15, 19]: 75 | Plant response rating, Ragweed [15, 20]: 55 | Plant response rating, Barnyardgrass [16]: 35

Reference: US9695155B2, “Herbicidal substituted pyrimidinyloxy benzene compounds” (E. I. DU PONT DE NEMOURS AND COMPANY, priority 2013, dated 2017)
